Data: patent US20250236616A1, “IMMUNOMODULATING AZALIDES” (Zoetis Services LLC, priority 2021, published 2025)

Key:
Type in all cases: cell-based
[1] = system: P. multocida; assay: MIC, P. multocida strains; details: Pasteurella multocida
Source text: (§1) Primary screening of the compounds of the invention included the evaluation of antibacterial activity of analogs through determination of microbial inhibition concentration (MIC) as per CLSI guidelines. The screening panel included the relevant BRD pathogens: 1) M. haemolytica (e.g., 12726, 46571 and 49023, all AHDRCC; and 33396 (ATCC)); and 2) P. multocida (e.g., 34135 and 46572 (both AHDRCC) and 43137 (ATCC)). In some instances, H. somni (A700025K) pathogens were also included in the screening panel. The AHDRCC strains originated from the Zoetis BRD/SRD surveillance program and refer to the Animal Health Development and Research Culture Collection. In addition, the screen assessed S. aureus (29213 ATCC) as a representative Gram-positive isolate, E.faecalis (19433 ATCC) as a commensal gram-positive gastrointestinal bacterium and E. coli (100, 3110 and 25922 (ATCC)) for the evaluation of efflux potential. The screening panel BRD pathogens were assessed in determining antibacterial activity of the Formula (1) compounds.
(§2) All relevant BRD pathogens were initially screened at a top concentration of 64 μg/mL of a Formula (1) compound in an eleven-point dilution series. […] If an Example was purified further, the MICs moved […] essentially two dilutions across all strains tested in the screening panel.
(§3) In-Vitro MIC Model Compounds were analyzed for antibacterial activity against a panel of animal health specific gram-positive and gram-negative clinical strains by diluting compounds in DMSO to an appropriate stock concentration to determine the Minimal Inhibitory Concentration (MIC) via a semi-automated broth micro-dilution method (CLSI reference method) with QC strains and anti-microbial agent(s). Specifically, bacteria were grown overnight on TSA w/5% sheep blood agar plates and diluted in saline buffer to a McFarland Standard 0.5, then further diluted in cation-ion adjusted Mueller Hinton Broth to a final concentration of approximately 5×10^5 CFU/mL. 100 μL of inoculated media was added to 96-well plate(s) with 3 μL of serially diluted compound in each row. Depending on strain (see CLSI reference method), bacteria were incubated 18-22 hours at 35-37° C. in ambient air, with 5% CO2 or anaerobically (up to 48 hours).

[2] = system: S. aureus; assay: MIC, S. aureus; details: Staphylococcus aureus; S. aureus 29213
Source text: as §1, §2, §3

[3] = system: IL-1β; assay: Whole bovine blood assay, LPS-induced IL-1β (inhibition / overstimulation); details: Bos taurus, 18 h, drug concentration giving overstimulation (OS) of LPS-induced IL-1β, top concentration 250 μM
How it was run: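 Fresh heparinized bovine whole blood was preincubated with compound at varying concentrations for 4 h at 37 °C, then stimulated with 1 μg/mL LPS for 18 h. Plasma IL-1β was measured by MSD chemiluminescent immunoassay and normalized to total protein. Values cover inhibition and concentration-dependent overstimulation.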

[4] = P. multocida 46572, murine efficacy challenge strain

Row | SMILES | MIC ([1]; P. multocida 43137) [µg/mL] | MIC [1, 4] [µg/mL] | MIC [2] [µg/mL] | minimal effective concentration [3] [µM]
1 | CC[C@H]1OC(=O)[C@H](C)[C@@H](O[C@H]2C[C@@](C)(OC)[C@](O)(CN3CCCCC3)[C@H](C)O2)[C@H](C)[C@@H](O[C@@H]2O[C@H](C)C[C@H](N(C)S(=O)(=O)Nc3ccc(C(F)(F)F)cc3)[C@H]2O)[C@](C)(O)C[C@@H](C)CN[C@H](C)[C@@H](O)[C@]1(C)O [Example C-11, (2R,3S,4R,5R,8R,10R,11R,12S, 13S, 14R)-2-ethyl-3,4, 10-trihydroxy-13-[(2R,4R,5S,6S)-5-hydroxy-4-methoxy-4,6-dimethyl-5-(piperidin-1-ylmethyl)oxan-2-yl]oxy-11-[(2S,3R,4S,6R)-3-hydroxy-6-methyl-4-[methyl-[[4-(trifluoromethyl)phenyl]sulfamoyl]amino]oxan-2-yl]oxy-3,5,8, 10, 12, 14-hexamethyl-15-oxo-1-oxa-6-azacyclopentadecane] | > 64 | > 64 | > 64 | –
2 | CCCNC[C@]1(O)[C@H](C)O[C@@H](O[C@H]2[C@H](C)[C@@H](O[C@@H]3O[C@H](C)C[C@H](N(C)S(=O)(=O)c4ccc(C)cc4)[C@H]3O)[C@](C)(O)C[C@@H](C)CN[C@H](C)[C@@H](O)[C@](C)(O)[C@@H](CC)OC(=O)[C@@H]2C)C[C@@]1(C)OC [Example B-26, N-((2S,3R,4S,6R)-2-(((2R,3S,4R,5R,8R,10R,11R,12S,13S,14R)-2-ethyl-3,4,10-trihydroxy-13-(((2R,4R,5S,6S)-5-hydroxy-4-methoxy-4,6-dimethyl-5-((propylamino)methyl)tetrahydro-2H-pyran-2-yl)oxy)-3,5,8,10,12,14-hexamethyl-15-oxo-1-oxa-6-azacyclopentadecan-11-yl)oxy)-3-hydroxy-6-methyltetrahydro-2H-pyran-4-yl)-N,4-dimethylbenzenesulfonamide] | > 64 | > 64 | > 64 | 16
3 | CCCNC[C@]1(O)[C@H](C)O[C@@H](O[C@H]2[C@H](C)[C@@H](O[C@@H]3O[C@H](C)C[C@H](N(C)S(=O)(=O)Nc4ccc(C(F)(F)F)cc4)[C@H]3O)[C@](C)(O)C[C@@H](C)CN[C@H](C)[C@@H](O)[C@](C)(O)[C@@H](CC)OC(=O)[C@@H]2C)C[C@@]1(C)OC [Example B-50, (2R,3S,4R,5R,8R,10R,11R,12S,13S, 14R)-2-ethyl-3,4,10-trihydroxy-13-[(2R,4R,5S,6S)-5-hydroxy-4-methoxy-4,6-dimethyl-5-(propylaminomethyl)oxan-2-yl]oxy-11-[(2S,3R,4S,6R)-3-hydroxy-6-methyl-4-[methyl-[[4-(trifluoromethyl)phenyl]sulfamoyl]amino]oxan-2-yl]oxy-3,5,8, 10, 12, 14-hexamethyl-15-oxo-1-oxa-6-azacyclopentadecane] | > 64 | > 64 | > 64 | 6
4 | CC[C@H]1OC(=O)[C@H](C)[C@@H](O)[C@H](C)[C@@H](O[C@@H]2O[C@H](C)C[C@H](N(C)S(=O)(=O)c3ccccc3)[C@H]2Oc2ccc(OC)cc2)[C@](C)(O)C[C@@H](C)CN[C@H](C)[C@@H](O)[C@]1(C)O [Example A-9, N-((2S,3R,4S,6R)-2-(((2R,3S,4R,5R,8R,10R,11R,12S,13S,14R)-2-ethyl-3,4,10,13-tetrahydroxy-3,5,8,10, 12, 14-hexamethyl-15-oxo-1-oxa-6-azacyclopentadecan-11-yl)oxy)-3-(4-methoxyphenoxy)-6-methyltetrahydro-2H-pyran-4-yl)-N-methylbenzenesulfonamide] | > 64 | > 64 | > 64 | 16
5 | CC[C@H]1OC(=O)[C@H](C)[C@@H](O[C@H]2C[C@@](C)(OC)[C@](O)(CN3CCCCC3)[C@H](C)O2)[C@H](C)[C@@H](O[C@@H]2O[C@H](C)C[C@H](N(C)S(=O)(=O)c3ccc(Cl)cc3)[C@H]2O)[C@](C)(O)C[C@@H](C)CN[C@H](C)[C@@H](O)[C@]1(C)O [Example C-4, 4-chloro-N-((2S,3R,4S,6R)-2-(((2R,3S,4R,5R,8R,10R,11R,12S,13S,14R)-2-ethyl-3,4,10-trihydroxy-13-(((2R,4R,5S,6S)-5-hydroxy-4-methoxy-4,6-dimethyl-5-(piperidin-1-ylmethyl)tetrahydro-2H-pyran-2-yl)oxy)-3,5,8, 10, 12, 14-hexamethyl-15-oxo-1-oxa-6-azacyclopentadecan-11-yl)oxy)-3-hydroxy-6-methyltetrahydro-2H-pyran-4-yl)-N-methylbenzenesulfonamide] | > 128 | > 128 | > 128 | 16
